Experimental data published in patent publication US5571518A, “Cosmetic compositions containing tricholine citrate” (priority 1995, dated 1996).

Key:
Type in all cases: cell-based
[1] = test system: human keratinocytes; assay: cells; conditions: Keratinocyte, five days, choline-free medium, ±SD, * statistically significant, read-out: Protein
Experimental: (§1) Human keratinocytes, isolated from neonatal foreskin by trypsin treatment were grown in Dulbecco Modification Eagle (DME) Hams F12 (3:1) medium/5% fetal calf serum in the presence of mitomycin C treated 3T3 mouse fibroblasts for establishing dividing keratinocyte colonies. Cells were grown under the above condition until their second passage and kept frozen for future use. Frozen second passage keratinocytes were thawed and plated into the above medium and grown for five days. On day 5, when the cells were 70-80% confluent, they were trypsinized and plated in the serum-free medium for the various experiments.
(§2) 4. The medium was aspirated, and the wells washed with 1 ml phosphate-buffered saline. The DNA and proteins of the cells in the plate were then precipitated by adding 1 ml of ice-cold 10% trichloroacetic acid (TCA). The plates were left on ice for 30 minutes to complete the precipitation process. TCA was then aspirated and each well was then washed four times with 5% TCA. The plates were then dried on a filter pad and the cells in the wells were dissolved in 0.5 ml of 0.1N sodium hydroxide. The sodium hydroxide was then neutralized using 0.1N hydrochloric acid and the solution (1 ml total volume) was then transferred to a scintillation vial. 50 μl samples from each vial were used for protein assay using BCA protein assay reagent obtained from Pierce Chemical Company. 8 ml of a scintillation fluid (Ecolume) was added to the rest of the solution in the vial, and the vials were counted in a scintillation counter to determine the amount of radioactivity in each vial. The DNA synthesis rate was then calculated as cpm ^3 H thymidine incorporated into total cellular DNA/microgram of cell protein for each individual well. Mean and standard deviation for each group was also calculated.
(§3) The aged epidermis may be choline deficient due to the decreased capillary circulation to the skin. To simulate the choline-deficient in vitro system, keratinocytes were plated in complete medium and 48 hours later switched to choline-free medium. The cells were then grown for five days in the choline-free medium with or without addition of different amounts of choline or TCC. To determine whether TCC can provide choline for keratinocyte proliferation under these conditions, on day 5, the amount of ^3 H thymidine incorporation into DNA was determined as in the previous experiment. The protein content of the wells were also quantitated. Both these parameters were expressed as % of control ±SD.

[2] = test system: human keratinocytes; assay: 3H choline incorporation into phospholipids of keratinocytes; conditions: Homo sapiens, Keratinocyte, 48 hours, * statistically significant effects, read-out: 3H choline incorporated into cellular phospholipids
Experimental: as §1
Choline acts as an essential nutrient for the cellular phospholipid biosynthesis of keratinocytes. Choline present in the medium is used up by the cells for phospholipid biosynthesis. If TCC provides choline for the cells it will complete with the choline in the medium for incorporation into cellular phospholipids. When cells are incubated with ^3 H-labelled choline, its incorporation into phospholipids will be decreased by the presence of unlabelled choline or TCC in the medium.
[…] The wells were washed, total lipids were extracted using Bleigh Dyer method as described above and the total counts in the chloroform phase was determined. To ascertain that the counts are present only in the phospholipid fraction, the amount of ^3 H choline incorporated into the different lipid fractions were quantitated by running TLC of the fractions in the above solvent system, and the amount of radioactivity in the phospholipid fraction (origin) was quantitated using BioScan plate reader. The cpm of ^3 H choline was plotted against the amount of cold choline or TCC added in the medium to assess the competition between choline supplied from TCC with ^3 H choline.
The amount of ^3 H choline incorporated into cellular phospholipids was determined and expressed as % of controls.

[3] = test system: human keratinocytes; assay: DNA synthesis (3H thymidine incorporation) in keratinocytes in choline-free medium; conditions: Keratinocyte
Experimental: as §1
The incorporation of ^3 H-thymidine by cultured keratinocytes was used as an assay of keratinocyte proliferation. Thymidine is one of four deoxynucleosides which are the monomeric units of DNA, the universal library of genetic information in the animal kingdom. Prior to cell division of a somatic cell such as a keratinocyte, the complete genome of the cell undergoing cell division is replicated. This involves large scale DNA synthesis by the cell and enables both daughter cells to receive identical copies of the genetic material. When ^3 H-thymidine is included in the culture media of keratinocytes which are synthesizing DNA in preparation for cell division then the labelled nucleoside is incorporated into the newly synthesized DNA. The extent of incorporation of ^3 H-thymidine into a population of cells is proportional to the rate of DNA synthesis by this population of cells and therefore an indication of their cellular proliferation.
as §2, §3

[4] = Signs of cytotoxicity in / tolerance by keratinocytes; conditions: human, 24 hours exposure, read-out: concentration at which cells showed signs of cytotoxicity
Experimental: Effects of 24 hours exposure to 0.1 μM to 10 mM of citric acid, choline or the different citrate esters on keratinocyte DNA synthesis are shown in table 1. Rate of DNA synthesis calculated as cpm ^3 H thymidine incorporated into cellular DNA/μg of cell protein is expressed as % of control (no addition controls) ±SD. The actual amount of cpm/μg protein of the control is 1103 ±88.

Compound	activity at 1 µM ([1]; 120 h, 1 μM) [%]	activity at 10 µM ([1]; 120 h, 10 μM) [%]	activity at 100 µM ([1]; 120 h, 100 μM) [%]	activity at 1000 µM ([1]; 120 h, 1000 μM) [%]	activity at 10000 µM ([1]; 120 h, 10,000 μM) [%]	activity at 10 µM [2] [%]	activity at 100 µM [2] [%]	activity at 1000 µM [2] [%]	activity at 1 µM ([3]; 120 h, 1 μM, five days, choline-free medium, ±SD, * statistically significant) [%]	activity at 10 µM ([3]; 120 h, 10 μM, five days, choline-free medium, ±SD, * statistically significant) [%]	activity at 100 µM ([3]; 120 h, 100 μM, five days, choline-free medium, ±SD, * statistically significant) [%]	activity at 1000 µM ([3]; 120 h, 1000 μM, five days, choline-free medium, ±SD, * statistically significant) [%]	activity at 10000 µM ([3]; 120 h, 10,000 μM, five days, choline-free medium, ±SD, * statistically significant) [%]	minimal effective concentration ([3]; read-out: lowest concentration that increased proliferation (both DNA synthesis and protein content)) [µM]	MCC at 24 h [4] [mM]
C[N+](C)(C)CCO [Choline, choline]	197 ± 21.8	264 ± 50	276 ± 52	229 ± 29	209 ± 13.7	61.6 ± 7.8	36.9 ± 1.6	10.8 ± 5.5	261 ± 5.6	313 ± 11.4	315 ± 29.3	297 ± 11.3	270 ± 11.2	1	
CCCCOC(=O)CC(O)(CC(=O)OCCCC)C(=O)OCCCC [TBC, tributylcitrate]						81.1 ± 7	121 ± 6.7	81.1 ± 12							≥ 1
CCOC(=O)CC(O)(CC(=O)OCC)C(=O)OCC [TEC, triethylcitrate]						114 ± 9.9	89.2 ± 1.9	82.8 ± 22							≥ 1
